Results: US7192746B2, “α-Isomaltosyltransferase, process for producing the same and use thereof” (Kabushiki Kaisha Hayashibara Seibutsu Kagaku Kenkyujo, priority 2000, dated 2007)
Where two headings read alike, the source gives them in different places.

Legend:
[1] = Reducing power on the Somogyi-Nelson's method; assay type: physicochemical
Inclusion action = assay type: physicochemical
Description: To 100 g of the aqueous solution was added 2 g of methanol, 3 g of ethanol, or 4.6 g of acetic acid to be included by the cyclotetrasaccharide. Thereafter, each of the resulting solutions was filtered to remove non-inclusion products, and the filtrate was lyophilized. As a control, similar inclusion products were prepared by using “ISOELITE™ P”, a branched cyclodextrin commercialized by Maruha K.K., Tokyo, Japan, known to have inclusion ability.
To measure the amount of the inclusion products in the resulting lyophilized powders, one gram of each powder was dissolved in five milliliters water and extracted after admixing with five milliliters of diethylether. The extraction was repeated, and the resulting extracts were pooled and quantified on gas chromatography.

[2] = system: Bacteroides vulgatus JCM 5826 strain; assay: Assimilation test; assay type: cell-based; details: PYF medium with 0.5% saccharide, 37° C., four days, anaerobic
[3] = Amino carbonyl reaction with glycine; assay type: physicochemical; details: 10% (w/v) with 1% (w/v) glycine, pH 7.0, 100° C.
Description: (§1) Four milliliter aliquots of the resulting solution were placed in glass test tubes, sealed, and heated at 100° C. for 30 to 90 min. After allowing to stand for cooling at ambient temperature, each of the resulting solutions was measured for coloration degree to examine their amino carbonyl reactivity. The coloration degree was evaluated based on the absorbance in a cell with 1-cm light pass at a wavelength of 480 nm.

[4] = system: Escherichia coli IFO 3301 strain; assay: Assimilation test; assay type: cell-based; details: PYF medium with 0.5% saccharide, 37° C., four days, anaerobic
[5] = system: Eubacterium aerofaciens ATCC 25986 strain; assay: Assimilation test; assay type: cell-based; details: PYF medium with 0.5% saccharide, 37° C., four days, anaerobic
[6] = Amino carbonyl reaction with polypeptone; assay type: physicochemical; details: 10% (w/v) with 5% (w/v) polypeptone, 120° C., minus control
Description: as §1, with “120°” for “100°”, “solution” for “solutions”, “reactivity. In parallel, as a control, a solution with only polypeptone was provided and similarly treated as above.” for “reactivity.”, “level of the absorbance, measured” for “absorbance”, “nm, minus that of the control.” for “nm.”

Thermostability = assay type: physicochemical; details: 10% (w/v) aqueous solution, 120° C.; for Purity: HPLC
Description: After the heating, the aqueous solution was cooled under atmospheric conditions and measured for coloration degree and determined for purity on HPLC in Experiment 1. The coloration degree was evaluated based on the absorbance in a cell with a 1-cm light pass at a wavelength of 480 nm.

salivary amylase [7] = target: T1, salivary amylase (Homo sapiens, UniProt P0DUB6)
T1 sequence (P0DUB6 16-511): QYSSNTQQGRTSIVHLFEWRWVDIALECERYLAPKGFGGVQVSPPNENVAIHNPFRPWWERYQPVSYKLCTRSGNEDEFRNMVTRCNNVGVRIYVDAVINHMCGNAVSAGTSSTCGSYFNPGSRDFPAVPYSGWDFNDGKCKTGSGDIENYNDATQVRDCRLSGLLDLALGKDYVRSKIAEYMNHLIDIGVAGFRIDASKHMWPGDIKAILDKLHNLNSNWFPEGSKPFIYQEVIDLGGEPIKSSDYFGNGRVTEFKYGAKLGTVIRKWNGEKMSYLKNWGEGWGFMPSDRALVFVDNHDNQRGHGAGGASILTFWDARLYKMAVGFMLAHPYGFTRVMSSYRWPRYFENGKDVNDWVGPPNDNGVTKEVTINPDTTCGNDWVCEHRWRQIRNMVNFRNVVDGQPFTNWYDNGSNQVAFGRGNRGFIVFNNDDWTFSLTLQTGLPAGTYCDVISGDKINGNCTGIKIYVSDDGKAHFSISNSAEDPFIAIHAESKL

mice = assay: Acute toxicity test; assay type: in vivo, mouse; details: oral
Source text: Based on this, the LD50 of cyclotetrasaccharide was at least 50 g/kg mouse body weight.

[8] = Saturation concentration of cyclotetrasaccharide in water; assay type: physicochemical; details: for Saturation concentration of cyclotetrasaccharide: water
Source text: The resulting each saturated solution of cyclotetrasaccharide was membrane filtered to remove undissolved cyclotetrasaccharide, and each filtrate was then examined for moisture content by the drying loss method and determined for a saturation concentration of cyclotetrasaccharide at respective temperatures.

[9] = system: Clostridium perfringens JCM 3816 strain; assay type: cell-based; details: PYF medium with 0.5% saccharide, 37° C., four days, anaerobic
salivary amylase [10] = target: T1, salivary amylase; assay: Digestion test in vitro
Digestion test in vitro = details: Synthetic gastric juice

OCC1OC2OCC3O[C@H](O[C@H]4C(O)C(CO)OC(OCC5O[C@H](O[C@@H](C1O)C2O)C(O)C(O)[C@@H]5O)C4O)C(O)C(O)[C@@H]3O (stereo partly drawn) [Cyclotetrasaccharide, cyclo{→6)-α-D-glucopyranosyl-(1→3)-α-D-glucopyranosyl-(1→6)-α-D-glucopyranosyl-(1→3)-α-D-glucopyranosyl-(1→}]
Reducing power [1]: below a detectable level | Inclusion ability relative to the branched cyclodextrin, by weight (Inclusion action; higher than ISOELITE P): about 2 folds | Inclusion amount (Inclusion action; inclusion product Acetic acid): 67.74 mg/g lyophilized powder | Inclusion amount (Inclusion action; inclusion product Ethanol): 17.26 mg/g lyophilized powder | Inclusion amount (Inclusion action; inclusion product Methanol): 6.71 mg/g lyophilized powder | Assimilability [2]: − (negative (−) when the post culture had a pH of 6.0 or higher) | Coloration degree (A480 nm) ([3]; heating time 0 min): 0.00 | Coloration degree (A480 nm) ([3]; heating time 30 min): 0.00 | Coloration degree (A480 nm) ([3]; heating time 60 min): 0.00 | Coloration degree (A480 nm) ([3]; heating time 90 min): 0.00 | Assimilability [4]: − (negative (−) when the post culture had a pH of 6.0 or higher) | Assimilability [5]: − (negative (−) when the post culture had a pH of 6.0 or higher) | Coloration degree (A480 nm) ([6]; heating time 0 min): 0.00 | Coloration degree (A480 nm) ([6]; heating time 30 min): 0.00 | Coloration degree (A480 nm) ([6]; heating time 60 min): 0.00 | Coloration degree (A480 nm) ([6]; heating time 90 min): 0.00 | Coloration degree (A480 nm) (Thermostability; heating time 0 min): 0.00 | Purity (Thermostability; heating time 0 min): 100% | Coloration degree (A480 nm) (Thermostability; heating time 30 min): 0.00 | Purity (Thermostability; heating time 30 min): 100% | Coloration degree (A480 nm) (Thermostability; heating time 60 min): 0.00 | Purity (Thermostability; heating time 60 min): 100% | Coloration degree (A480 nm) (Thermostability; heating time 90 min): 0.00 | Purity (Thermostability; heating time 90 min): 100% | Decomposition percentage by digestive enzyme (salivary amylase [7]): 0.0% | Death at highest possible dose (mice): did not induce death of mouse | LD50 (mice): at least 50 g/kg mouse body weight | Weight of cyclotetrasaccharide dissolved in 100 g water ([8]; 10° C.): 43.5 g | Weight of cyclotetrasaccharide dissolved in 100 g water ([8]; 30° C.): 51.9 g | Weight of cyclotetrasaccharide dissolved in 100 g water ([8]; 50° C.): 74.2 g | Weight of cyclotetrasaccharide dissolved in 100 g water ([8]; 70° C.): 112.7 g | Weight of cyclotetrasaccharide dissolved in 100 g water ([8]; 90° C.): 239.0 g | Saturation concentration of cyclotetrasaccharide ([8]; 10° C.): 30.3% | Saturation concentration of cyclotetrasaccharide ([8]; 30° C.): 34.2% | Saturation concentration of cyclotetrasaccharide ([8]; 50° C.): 42.6% | Saturation concentration of cyclotetrasaccharide ([8]; 70° C.): 53.0% | Saturation concentration of cyclotetrasaccharide ([8]; 90° C.): 70.5% | Assimilability [9]: − (negative (−) when the post culture had a pH of 6.0 or higher)

OC[C@@H](O)[C@@H](O[C@H]1O[C@H](CO)[C@@H](O)[C@H](O)[C@H]1O)[C@H](O)[C@@H](O)CO [Maltitol, maltitol]
Decomposition percentage by digestive enzyme (salivary amylase [10]): 0.0% | Decomposition percentage by digestive enzyme (Digestion test in vitro): 0.0%
